We go through one molecule from publication PMC9124820, “In vitro evaluation of fenfluramine and norfenfluramine as victims of drug interactions” (Pharmacology Research & Perspectives, 2022).

A short description of series [1]: Metabolic stability and metabolite identity, rat liver S9 fractions. Type of series: in vitro ADME. Conditions: pH 7.4; 1 µM FFA, rat liver S9 fractions 2 mg protein/mL. On the procedure:
(§1) LC‐MS/MS analyses to assess metabolic stability and identify the transporter substrate were performed using an API 4000 QTRAP mass spectrometer (SCIEX, Framingham, MA) with electrospray ionization in positive mode. Chromatography was performed using an Atlantis dC18 analytical column (100 × 2.1 mm, 5 µm; Waters Corporation, Milford, MA). Mobile phases were 0.2% v/v formic acid in water and 0.2% v/v formic acid in acetonitrile. For metabolic stability experiments, FFA and metabolites were eluted at a flow rate of 0.6 mL/min, with a linear gradient of 20%−80% acetonitrile from 0.30−2.0 min. […] The mass transitions monitored were 232.0 > 159.0 for FFA and 348.0 > 330.0 for 1ʹ‐OH‐midazolam‐d4 internal standard. […]
(§2) FFA (1 or 10 µM) was incubated with liver and intestinal S9 fractions (2 mg protein/mL) at 37 ± 1°C in 0.2‐mL incubation mixtures containing potassium phosphate buffer (50 mM, pH 7.4), magnesium chloride (MgCl2) (3 mM), and EDTA (1 mM, pH 7.4), in the presence or absence of a three‐component cofactor mixture (NADPH‐generating system, uridine diphosphate glucuronic acid (UDPGA) [8 mM], and 3’‐phosphoadenosine 5’‐phosphosulfate [0.5 mM]). […] Supernatant fractions were analyzed by LC‐MS/MS.
(§3) To characterize substrate loss and metabolic stability, duplicate samples were analyzed by LC‐MS/MS to determine the change in substrate concentration over the incubation period. […]

Series [2] can be described thus: Metabolic stability and metabolite identity, human intestinal S9 fractions. Type of series: in vitro ADME. As to conditions: pH 7.4, 1 µM FFA, human intestine S9 fractions, outside assay detection limits. On the procedure: as §1, §2, §3

With `CCNC(C)Cc1cccc(C(F)(F)F)c1` (racemic) [FFA, (RS)‐ethyl (α‐methyl‐3‐trifluoromethylphenethyl)amine], the half-life at 1 µM in series [1] was 35.4 min; in series [2], above 120 min. Also, the microsomal CLint at 1 µM in series [1] is 9.8 µL/min/mg; in series [2] it was below 2.9 µL/min/mg.
